IC50 data for 32 molecules are collected here from US12624034B2, “Non-covalent modifiers of AKT1 and uses thereof” (Terremoto Biosciences, Inc., priority 2023, dated 2026).

One assay concerns the target T1, AKT2 (Homo sapiens, UniProt P31751).
T1 construct: expressed in transfected cells; host or cells: HEK293
The assay is described as follows: Live cell AKT2 target engagement by NanoBRET competitive probe displacement in HEK293 cells. Conditions: 2 h at 37° C., read-out: AKT2 IC50. The class given is binding. On the technique in general: In BRET a luciferase serves as donor, and the signal depends on an acceptor being close.

The next assay has as its target T2, AKT1 WT (Homo sapiens, UniProt P31749).
T2 construct: expressed in transfected cells; host or cells: HEK293
Kind of assay: Live cell AKT1 WT target engagement by NanoBRET competitive probe displacement in HEK293 cells. To be noted: 2 h at 37° C., read-out: AKT1 WT IC50. The class given is binding.

The mark [1] stands for this setting: NanoBRET competitive probe displacement, live HEK293 cells.
[2] abbreviates: NanoBRET live cell target engagement, HEK293 cells.

Molecules are shown by their SMILES. Like-named read-outs stand apart in the source and are kept apart here.

T2 sequence (P31749 whole entry): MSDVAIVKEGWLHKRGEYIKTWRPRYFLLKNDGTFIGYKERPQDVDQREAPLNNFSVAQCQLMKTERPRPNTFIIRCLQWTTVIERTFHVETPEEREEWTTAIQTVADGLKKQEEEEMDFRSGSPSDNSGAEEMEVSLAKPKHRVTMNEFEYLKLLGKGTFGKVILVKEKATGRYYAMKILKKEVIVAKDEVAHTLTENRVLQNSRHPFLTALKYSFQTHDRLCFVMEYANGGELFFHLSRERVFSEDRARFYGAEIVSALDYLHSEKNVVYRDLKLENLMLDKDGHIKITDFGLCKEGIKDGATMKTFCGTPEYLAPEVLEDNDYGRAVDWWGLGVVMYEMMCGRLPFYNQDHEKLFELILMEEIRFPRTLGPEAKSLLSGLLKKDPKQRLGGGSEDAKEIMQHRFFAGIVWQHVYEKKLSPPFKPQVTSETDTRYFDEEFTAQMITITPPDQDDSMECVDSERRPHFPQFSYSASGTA
T1 sequence (P31751 whole entry): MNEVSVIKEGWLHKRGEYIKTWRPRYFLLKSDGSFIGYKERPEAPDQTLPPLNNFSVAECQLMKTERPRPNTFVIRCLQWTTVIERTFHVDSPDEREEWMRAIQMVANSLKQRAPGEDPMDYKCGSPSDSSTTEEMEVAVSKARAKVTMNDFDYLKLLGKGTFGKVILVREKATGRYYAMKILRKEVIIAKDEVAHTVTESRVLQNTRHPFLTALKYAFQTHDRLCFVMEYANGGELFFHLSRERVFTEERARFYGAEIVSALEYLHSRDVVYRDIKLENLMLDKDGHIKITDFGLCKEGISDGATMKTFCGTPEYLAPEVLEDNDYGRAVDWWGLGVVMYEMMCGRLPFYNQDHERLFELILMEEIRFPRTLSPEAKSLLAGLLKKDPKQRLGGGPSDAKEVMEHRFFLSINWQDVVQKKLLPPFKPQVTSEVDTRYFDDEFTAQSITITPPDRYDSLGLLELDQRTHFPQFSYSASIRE

A word on the IC50: it is the concentration at which inhibition is half-maximal. Consider `Nc1ncccc1-c1nc2ccc(-n3ncc(C4CC4)n3)nc2n1-c1ccc2c(c1)CC[C@@H]2NC(=O)c1cnc(C(F)F)s1` [Compound 588], for which the IC50 amounted to 764 nM on AKT2 (setting [1]) and 27 nM at AKT1 WT (setting [1]).

As for `Nc1ncccc1-c1nc2ccc(-n3ccc(NC4CC4)n3)nc2n1-c1ccc2c(c1)CC[C@@H]2NC1CCN(C(=O)C2CC2)CC1` [Compound 599], the IC50 at AKT2 (setting [1]) came out at 1280 nM; on AKT1 WT (setting [1]), 25.4 nM.

As to `CNC(=O)c1cccc(C(=O)N[C@H]2CCc3cc(-n4c(-c5cccnc5N)nc5ccc(-n6cccn6)nc54)ccc32)c1` [Compound 292], the IC50 on AKT2 (setting [2]) is 73.2 nM; on AKT1 WT (setting [2]), 12.9 nM.

For `Cc1coc(-c2ccc3nc(-c4cccnc4N)n(-c4ccc5c(c4)CC[C@@H]5NC(=O)c4nccnc4C)c3n2)n1` [Compound 244], the IC50 on AKT2 (setting [2]) was > 10000 nM; on AKT1 WT (setting [2]), 221 nM.

As to `Nc1ncccc1-c1nc2ccc(-n3cccn3)nc2n1-c1ccc2c(c1)CC[C@@H]2n1nnc2ccccc21` [Compound 345], the IC50 at AKT2 (setting [2]) came out at 752 nM; at AKT1 WT (setting [2]) it was 51.6 nM.

Turning to `Cc1ccc(C(=O)N[C@H]2CCc3cc(-n4c(-c5cccnc5N)nc5ccc(-c6ncco6)nc54)ccc32)cn1` [Compound 223], the IC50 on AKT2 (setting [2]) is 586 nM; on AKT1 WT (setting [2]) it was 38.7 nM.

Consider `CCOc1ccn(-c2ccc3nc(-c4cccnc4N)n(-c4ccc5c(c4)CC[C@@H]5NC4CCN(C(=O)C5CC5)CC4)c3n2)n1` [Compound 486], for which the IC50 at AKT2 (setting [1]) was found to be 1070 nM; on AKT1 WT (setting [1]), 25.1 nM.

Turning to `CN(C)CC#Cc1ccc2nc(-c3cccnc3N)n(-c3ccc4c(c3)CC[C@@H]4NC(=O)c3ccc(C(F)F)nc3)c2n1` [Compound 407], the IC50 at AKT2 (setting [1]) is 3550 nM; at AKT1 WT (setting [1]), 421 nM.

In the case of `Nc1ncccc1-c1nc2ccc(-n3cccn3)nc2n1-c1ccc2c(c1)CC(F)[C@@H]2NC1CN(c2ccccn2)C1` (stereo partly shown) [Compound 208], the IC50 was 1030 nM at AKT2 (setting [2]) and 32.4 nM at AKT1 WT (setting [2]).

Turning to `Cc1nccnc1C(=O)N[C@H]1CCc2cc(-n3c(-c4cccnc4N)nc4ccc(-c5ccn(C(F)F)n5)nc43)ccc21` [Compound 301], the IC50 stood at 2050 nM at AKT2 (setting [2]) and 189 nM at AKT1 WT (setting [2]).

As for `Nc1ncccc1-c1nc2ccc(-n3cccn3)nc2n1-c1ccc2c(c1)CC[C@@H]2NC(=O)c1cc2ccccn2n1` [Compound 175], the IC50 at AKT2 (setting [2]) is 79.7 nM; on AKT1 WT (setting [2]), 13 nM.

As to `Cn1ccc(=O)n1-c1ccn(-c2ccc3nc(-c4cccnc4N)n(-c4ccc5c(c4)CC[C@@H]5NC4CCN(C(=O)C5CC5)CC4)c3n2)n1` [Compound 573], the IC50 at AKT2 (setting [1]) stood at 5640 nM; at AKT1 WT (setting [1]) it was 318 nM.

On to `Nc1ncccc1-c1nc2ccc(-n3cccn3)nc2n1-c1ccc2c(c1)CC[C@@H]2NC1CC2(CCCN(c3ccccn3)C2)C1` (stereo partly shown) [Compound 467], for which the IC50 on AKT2 (setting [1]) stood at 3560 nM; on AKT1 WT (setting [1]) it was 358 nM.

Consider `Nc1ncccc1-c1nc2ccc(-n3cccn3)nc2n1-c1ccc2c(c1)CC[C@@H]2NC(=O)c1ccc(CF)nc1` [Compound 98], for which the IC50 at AKT2 (setting [2]) was determined as 52.6 nM; at AKT1 WT (setting [2]), 13.2 nM.

Regarding `N#Cc1cc(C(=O)N[C@H]2CCc3cc(-n4c(-c5cccnc5N)nc5ccc(-n6cccn6)nc54)ccc32)ccc1O` [Compound 259], the figures for the IC50 at AKT2 (setting [2]) and at AKT1 WT (setting [2]) were 1210 nM and 204 nM, respectively.

Turning to `CCc1ncccc1C(=O)N[C@H]1CCc2cc(-n3c(-c4cccnc4N)nc4ccc(-n5cccn5)nc43)ccc21` [Compound 86], the IC50 on AKT2 (setting [2]) is 427 nM; at AKT1 WT (setting [2]), 46.8 nM.

Regarding `Cc1cnc2ccc(C(=O)N[C@H]3CCc4cc(-n5c(-c6cccnc6N)nc6ccc(-n7nccn7)nc65)ccc43)cn12` [Compound 398], the IC50 at AKT2 (setting [1]) turned out to be 1090 nM; on AKT1 WT (setting [1]) it was 17.8 nM.

`Cc1ccc(C(=O)N[C@H]2CCc3cc(-n4c(-c5cccnc5N)nc5ccc(-c6nc(C)co6)nc54)ccc32)cn1` [Compound 267]: the concentration for half-maximal inhibition (IC50) came to 286 nM on AKT2 (setting [2]) and 14.6 nM on AKT1 WT (setting [2]).

`COc1ncncc1C(=O)N[C@H]1CCc2cc(-n3c(-c4cccnc4N)nc4ccc(-n5cccn5)nc43)ccc21` [Compound 157]: the values for the IC50 at AKT2 (setting [2]) and on AKT1 WT (setting [2]) were 521 nM and 40.5 nM, respectively.

Turning to `Nc1ncccc1-c1nc2ccc(-n3cccn3)nc2n1-c1ccc2c(c1)CC[C@@H]2NC(=O)c1cccnc1F` [Compound 127], the IC50 at AKT2 (setting [2]) was 126 nM; at AKT1 WT (setting [2]), 12.6 nM.

As for `Nc1ncccc1-c1nc2ccc(-n3cccn3)nc2n1-c1ccc2c(c1)CC[C@@H]2NC1CCN(C(=O)[C@H]2CCO2)CC1` [Compound 425], the IC50 at AKT2 (setting [1]) came to 3090 nM; at AKT1 WT (setting [1]), 109 nM.

Consider `Cn1ccc(N2CCC(N[C@H]3CCc4cc(-n5c(-c6cccnc6N)nc6ccc(-n7ccc(C8CCOCC8)n7)nc65)ccc43)CC2)n1` [Compound 549], for which the IC50 on AKT2 (setting [1]) is 723 nM; on AKT1 WT (setting [1]), 27.6 nM.

With `Nc1ncccc1-c1nc2ccc(-n3cccn3)nc2n1-c1ccc2c(c1)CC[C@@H]2NC(=O)c1cccc(O)c1` [Compound 307], the half-inhibitory concentration (IC50) on AKT2 (setting [2]) came to 123 nM; at AKT1 WT (setting [2]), 10.8 nM.

Turning to `Nc1ncccc1-c1nc2c(C(F)F)cc(-n3cccn3)nc2n1-c1ccc2c(c1)CC[C@@H]2NC(=O)c1ccc(C(F)F)nc1` [Compound 177, (S)—N-(5-(2-(2-aminopyridin-3-yl)-7-(difluoromethyl)-5-(1H-pyrazol-1-yl)-3H-imidazo[4,5-b]pyridin-3-yl)-2,3-dihydro-1H-inden-1-yl)-6-(difluoromethyl)nicotinamide], the IC50 was found to be 47.2 nM at AKT2 (setting [2]) and 10.6 nM on AKT1 WT (setting [2]).

Turning to `CN1CC(Oc2ccn(-c3ccc4nc(-c5cccnc5N)n(-c5ccc6c(c5)CC[C@@H]6NC5CCN(C(=O)C6CC6)CC5)c4n3)n2)C1` [Compound 566], the IC50 turned out to be 246 nM on AKT2 (setting [1]) and 10.5 nM at AKT1 WT (setting [1]).

With `Cc1cnc(C(=O)N[C@H]2CCc3cc(-n4c(-c5cccnc5N)nc5ccc(-n6cccn6)nc54)ccc32)cn1` [Compound 185], the results for the IC50 on AKT2 (setting [2]) and on AKT1 WT (setting [2]) were 1540 nM and 65.3 nM, respectively.

As for `Nc1ncccc1-c1nc2ccc(-n3cccn3)nc2n1-c1ccc2c(c1)CCC2n1cccn1` (stereo not shown) [Compound 325, 3-(3-(1-(1H-pyrazol-1-yl)-2,3-dihydro-1H-inden-5-yl)-5-(1H-pyrazol-1-yl)-3H-imidazo[4,5-b]pyridin-2-yl)pyridin-2-amine], the IC50 at AKT2 (setting [2]) stood at 4290 nM; at AKT1 WT (setting [2]), 120 nM.

In the case of `Nc1ncccc1-c1nc2ccc(-n3ccc(OC(F)F)n3)nc2n1-c1ccc2c(c1)CC(F)[C@@H]2NC1CCN(C(=O)C2CC2)CC1` (stereo partly shown) [Compound 525], the IC50 came to 1330 nM at AKT2 (setting [1]) and 33.5 nM at AKT1 WT (setting [1]).

For the molecule `Cc1nnsc1C(=O)N[C@H]1CCc2cc(-n3c(-c4cccnc4N)nc4ccc(-n5cccn5)nc43)ccc21` [Compound 438], the figures for the IC50 on AKT2 (setting [1]) and at AKT1 WT (setting [1]) were 795 nM and 25.3 nM, respectively.

Regarding `Nc1ncccc1-c1nc2ccc(-n3cccn3)nc2n1-c1ccc2c(c1)CC[C@@H]2NC(=O)c1cc(F)c(F)c(F)c1` [Compound 343], the IC50 on AKT2 (setting [2]) was 240 nM; at AKT1 WT (setting [2]) it was 16.6 nM.

In the case of `Cn1c(C(=O)N[C@H]2CCc3cc(-n4c(-c5cccnc5N)nc5ccc(-n6nccn6)nc54)ccc32)cnc1C1CC1` [Compound 540], the IC50 on AKT2 (setting [1]) was 3180 nM; on AKT1 WT (setting [1]), 107 nM.

Take `Nc1ncccc1-c1nc2ccc(-n3cccn3)nc2n1-c1ccc2c(c1)CC[C@H]2n1ccnn1` [Compound 227]: the half-maximal inhibitory concentration (IC50) at AKT2 (setting [2]) is > 10000 nM; on AKT1 WT (setting [2]), > 1000 nM.
